Data reported in ChEMBL document CHEMBL2331144, “Synthesis and anticancer activity of analogues of phenstatin, with a phenothiazine A-ring, as a new class of microtubule-targeting agents” (Bioorg Med Chem Lett, 2013).

How the values were obtained:
[1] = test system: CCRF-CEM; assay: Growth inhibition of human CCRF-CEM cells at 10 uM after 48 hrs by sulforhodamine B assay; format: functional; conditions: read-out: GI
[2] = test system: HL-60(TB); assay: Growth inhibition of human HL-60(TB) cells at 10 uM after 48 hrs by sulforhodamine B assay; format: functional; conditions: HL-60, 48 h, read-out: GI
[3] = test system: RPMI-8226; assay: Growth inhibition of human RPMI8226 cells at 10 uM after 48 hrs by sulforhodamine B assay; format: functional; conditions: RPMI-8226, 48 h, read-out: GI
[4] = Growth inhibition of human NCI-ADR-RES cells at 10 uM after 48 hrs by sulforhodamine B assay; format: functional; conditions: read-out: GI
[5] = test system: T47D; assay: Growth inhibition of human T47D cells at 10 uM after 48 hrs by sulforhodamine B assay; format: functional; conditions: read-out: GI
[6] = test system: HOP-92; assay: Growth inhibition of human HOP92 cells at 10 uM after 48 hrs by sulforhodamine B assay; format: functional; conditions: HOP-92, 48 h, read-out: GI
[7] = test system: HCT-116; assay: Growth inhibition of human HCT116 cells at 10 uM after 48 hrs by sulforhodamine B assay; format: functional; conditions: HCT-116, 48 h, read-out: GI
[8] = test system: K562; assay: Growth inhibition of human K562 cells at 10 uM after 48 hrs by sulforhodamine B assay; format: functional; conditions: K562, 48 h, read-out: GI
[9] = test system: MDA-MB-435; assay: Growth inhibition of human MDA-MB-435 cells at 10 uM after 48 hrs by sulforhodamine B assay; format: functional; conditions: MDA-MB-435, 48 h, read-out: GI
[10] = test system: LOX IMVI; assay: Growth inhibition of human LOXIMVI cells at 10 uM after 48 hrs by sulforhodamine B assay; format: functional; conditions: read-out: GI
[11] = species: Ovis aries; assay: Inhibition of sheep brain tubulin polymerization at 100 uM using DAPI by fluorimetry
[12] = test system: NCI-H522; assay: Growth inhibition of human NCI-H522 cells at 10 uM after 48 hrs by sulforhodamine B assay; format: functional; conditions: NCI-H522, 48 h, read-out: GI
[13] = test system: 786-0; assay: Growth inhibition of human 786-0 cells at 10 uM after 48 hrs by sulforhodamine B assay; format: functional; conditions: 786-0, 48 h, read-out: GI
[14] = test system: OVCAR-4; assay: Growth inhibition of human OVCAR4 cells at 10 uM after 48 hrs by sulforhodamine B assay; format: functional; conditions: OVCAR-4, 48 h, read-out: GI
[15] = test system: RXF 393; assay: Growth inhibition of human RXF393 cells at 10 uM after 48 hrs by sulforhodamine B assay; format: functional; conditions: RXF 393, 48 h, read-out: GI
[16] = test system: UACC-62; assay: Growth inhibition of human UACC62 cells at 10 uM after 48 hrs by sulforhodamine B assay; format: functional; conditions: UACC-62, 48 h, read-out: GI
[17] = test system: PC-3; assay: Growth inhibition of human PC3 cells at 10 uM after 48 hrs by sulforhodamine B assay; format: functional; conditions: PC-3, 48 h, read-out: GI
[18] = test system: SK-MEL-5; assay: Growth inhibition of human SK-MEL-5 cells at 10 uM after 48 hrs by sulforhodamine B assay; format: functional; conditions: SK-MEL-5, 48 h, read-out: GI
[19] = test system: CAKI-1; assay: Growth inhibition of human CAKI-1 cells at 10 uM after 48 hrs by sulforhodamine B assay; format: functional; conditions: CAKI-1, 48 h, read-out: GI
[20] = test system: HOP-62; assay: Growth inhibition of human HOP62 cells at 10 uM after 48 hrs by sulforhodamine B assay; format: functional; conditions: HOP-62, 48 h, read-out: GI
[21] = test system: MDA-MB-468; assay: Growth inhibition of human MDA-MB-468 cells at 10 uM after 48 hrs by sulforhodamine B assay; format: functional; conditions: MDA-MB-468, 48 h, read-out: GI
[22] = test system: SF-295; assay: Growth inhibition of human SF295 cells at 10 uM after 48 hrs by sulforhodamine B assay; format: functional; conditions: SF-295, 48 h, read-out: GI
[23] = test system: MCF7; assay: Growth inhibition of human MCF7 cells at 10 uM after 48 hrs by sulforhodamine B assay; format: functional; conditions: MCF7, 48 h, read-out: GI
[24] = test system: SNB-75; assay: Growth inhibition of human SNB75 cells at 10 uM after 48 hrs by sulforhodamine B assay; format: functional; conditions: SNB-75, 48 h, read-out: GI
[25] = test system: MDA-MB-231; assay: Growth inhibition of human MDA-MB-231 cells at 10 uM after 48 hrs by sulforhodamine B assay; format: functional; conditions: MDA-MB-231, 48 h, read-out: GI
[26] = test system: COLO 205; assay: Growth inhibition of human COLO205 cells at 10 uM after 48 hrs by sulforhodamine B assay; format: functional; conditions: COLO 205, 48 h, read-out: GI
[27] = test system: Malme-3M; assay: Growth inhibition of human MALME-3M cells at 10 uM after 48 hrs by sulforhodamine B assay; format: functional; conditions: read-out: GI
[28] = test system: UO-31; assay: Growth inhibition of human UO31 cells at 10 uM after 48 hrs by sulforhodamine B assay; format: functional; conditions: UO-31, 48 h, read-out: GI
[29] = test system: HCT-15; assay: Growth inhibition of human HCT15 cells at 10 uM after 48 hrs by sulforhodamine B assay; format: functional; conditions: HCT-15, 48 h, read-out: GI
[30] = test system: MOLT-4; assay: Growth inhibition of human MOLT4 cells at 10 uM after 48 hrs by sulforhodamine B assay; format: functional; conditions: MOLT-4, 48 h, read-out: GI
[31] = test system: KM12; assay: Growth inhibition of human KM12 cells at 10 uM after 48 hrs by sulforhodamine B assay; format: functional; conditions: KM12, 48 h, read-out: GI

## O=C(c1cnc2ccccn12)N1c2ccccc2Sc2ccccc21
[1]
  inhibition of growth at 10 µM: 3.1%
[2]
  inhibition of growth at 10 µM: 38.1%
[3]
  inhibition of growth at 10 µM: 36%
[4]
  inhibition of growth at 10 µM: 12.8%
[5]
  inhibition of growth at 10 µM: 19.2%
[6]
  inhibition of growth at 10 µM: 33.8%
[7]
  inhibition of growth at 10 µM: 17.8%
[8]
  inhibition of growth at 10 µM: 2.3%
[9]
  inhibition of growth at 10 µM: 6.7%
[10]
  inhibition of growth at 10 µM: 12%
[11]
  inhibition: 38%
[12]
  inhibition of growth at 10 µM: 6.6%
[13]
  inhibition of growth at 10 µM: 5.3%
[14]
  inhibition of growth at 10 µM: 0%
[15]
  inhibition of growth at 10 µM: 0%
[16]
  inhibition of growth at 10 µM: 39.3%
[17]
  inhibition of growth at 10 µM: 45.1%
[18]
  inhibition of growth at 10 µM: 14.6%
[19]
  inhibition of growth at 10 µM: 5.9%
[20]
  inhibition of growth at 10 µM: 3.4%
[21]
  inhibition of growth at 10 µM: 7.3%
[22]
  inhibition of growth at 10 µM: 16%
[23]
  inhibition of growth at 10 µM: 4.6%
[24]
  inhibition of growth at 10 µM: 0%
[25]
  inhibition of growth at 10 µM: 7.4%
[26]
  inhibition of growth at 10 µM: 19.1%
[27]
  inhibition of growth at 10 µM: 2%
[28]
  inhibition of growth at 10 µM: 0%
[29]
  inhibition of growth at 10 µM: 17.3%
[30]
  inhibition of growth at 10 µM: 0%
[31]
  inhibition of growth at 10 µM: 14%
